The values that follow come from patent US20250179440A1, “METHOD FOR CULTURING CANCER ORGANOID AND METHOD FOR SCREENING TEST SUBSTANCE” (TOPPAN Holdings Inc., priority 2022, published 2025).

In this test the test system is blood vessel network of the cell structure (HUVEC/NHDF). Kind of test: Blood vessel network formation in the cell structure co-cultured with PDOs (anti-CD31 immunostaining). In kind it is cell-based, human. To be noted: added factor of EGM2 added singly to DMEM and EBM2; FIGS. 9 and 10. On the procedure: The pre-culture of the patient-derived PDOs and the preparation of the cell structure were performed by the same method as in Example 1. For the co-culture of the PDOs and the cell structure, a method for top surface culture of the cell structure using single-celled PDOs was adopted. In addition, regarding the sample for which the culture was continued, the co-culture of the PDOs and the cell structure was performed by the same method as in Example 1, except that the medium was replaced using each medium at a timing of once every three or four days. Fluorescence immunostaining, image capturing, and image analysis were performed by the same methods as in Example 1. Next, in order to identify the inhibitory factors among the added factors, media obtained by adding each of the added factors of EGM2 shown in Table 7 to D-MEM and EBM2, and media obtained by excluding each of the added factors shown in Table 7 from EGM2 were prepared, and vascular network evaluation was performed. The scale bars in FIGS. 9 and 10 indicate 500 μm. […] In FIG. 10, +means that the added factor is included, and −means that the added factor is excluded.

On to `C[C@]12CCC(=O)C=C1CC[C@@H]1[C@@H]2[C@@H](O)C[C@@]2(C)[C@H]1CC[C@]2(O)C(=O)CO` [Hydrocortisone], for which the “formation of the blood vessel network” value was “the formation of the blood vessel network was suppressed”.
